In patent US20070128217A1 (priority 2003, published 2007):

Columns and labels:
[1] = test system: recombinant human anti-SARS-CoV antibody 03-018; format: binding; design: Binding of antibody 03-018 to linear peptides of the N protein of SARS-CoV Urbani / Binding of antibody 03-018 to looped/cyclic peptides of the N protein of SARS-CoV Urbani: unit not given here
[2] = test system: antibodies in sera from SARS patients (sera 1a, 1b, 2, 6, 37, 62, London, SARS-yellow, SARS-green); format: binding, human; design: Binding of serum 6 to linear peptides of protein X1 of SARS-CoV Urbani / Binding of serum 37 to linear peptides of protein X1 of SARS-CoV Urbani / Binding of serum 6 to looped/cyclic peptide (PEPSCAN-ELISA) / Binding of serum 37 to looped/cyclic peptide (PEPSCAN-ELISA) / Binding of serum 37 to looped/cyclic peptides of protein X1 of SARS-CoV Urbani / Binding of serum 6 to linear peptides of protein X2 / Binding of serum 37 to linear peptides of protein X2 / Binding of serum 37 to looped/cyclic peptides of protein X2 of SARS-CoV Urbani / Binding of serum 6 to linear peptides of protein M of SARS-CoV Urbani / Binding of serum 37 to linear peptides of protein M of SARS-CoV Urbani / Binding of serum 6 to looped/cyclic peptides of protein M of SARS-CoV Urbani / Binding of serum 37 to looped/cyclic peptides of protein M of SARS-CoV Urbani / Binding of serum 6 to linear peptides of protein X3 of SARS-CoV Urbani / Binding of serum 37 to linear peptides of protein X3 of SARS-CoV Urbani / Binding of serum 37 to looped/cyclic peptides of protein X3 of SARS-CoV Urbani / Binding of serum 6 to linear peptides of protein X4 of SARS-CoV Urbani / Binding of serum 37 to linear peptides of protein X4 of SARS-CoV Urbani / Binding of serum 37 to looped/cyclic peptides of protein X4 of SARS-CoV Urbani / Binding of serum 6 to linear peptides of protein X5 of SARS-CoV Urbani / Binding of serum 37 to linear peptides of protein X5 of SARS-CoV Urbani / Binding of serum 37 to looped/cyclic peptides of protein X5 of SARS-CoV Urbani / Binding of serum 6 to linear peptides of protein N of SARS-CoV Urbani / Binding of serum 37 to linear peptides of protein N of SARS-CoV Urbani / Binding of serum 6 to linear peptide (PEPSCAN-ELISA) / Binding of serum 1a to looped/cyclic peptides of protein N of SARS-CoV Urbani / Binding of serum 1b to looped/cyclic peptides of protein N of SARS-CoV Urbani / Binding of serum 2 to looped/cyclic peptides of protein N of SARS-CoV Urbani / Binding of serum 6 to looped/cyclic peptides of protein N of SARS-CoV Urbani / Binding of serum 37 to looped/cyclic peptides of protein N of SARS-CoV Urbani / Binding of serum 62 to looped/cyclic peptides of protein N of SARS-CoV Urbani / Binding of serum London to looped/cyclic peptides of protein N of SARS-CoV Urbani / Binding of serum SARS-green to looped/cyclic peptides of protein N of SARS-CoV Urbani: unit not given here
[3] = test system: rabbit serum obtained by immunizing a rabbit with the SARS-CoV strain Frankfurt 1; format: binding; design: Binding of a rabbit serum to linear peptides / Binding of a rabbit serum to looped peptides / Rabbit serum linear peptides / Rabbit serum looped peptides / Binding of a rabbit serum to linear peptides of protein N of SARS-CoV Urbani (Rabbit serum linear peptides) / Binding of a rabbit serum to looped/cyclic peptides of protein N of SARS-CoV Urbani (Rabbit serum looped peptides): unit not given here
[4] = test system: control sera (pooled serum of ten healthy LUMC hospital workers; commercial negative donor pooled serum from the Dutch bloodbank); format: binding, human; design: Binding of Control serum LUMC to linear peptides / Binding of Control serum Blood-bank to linear peptides / Binding of Control serum LUMC to looped peptides / Binding of Control Serum Blood-Bank to Looped peptides / Binding of Control serum LUMC to linear peptides of the protein M of SARS-CoV Urbani / Binding of Control serum Blood-bank to linear peptides of the protein M of SARS-CoV Urbani / Binding of Control serum LUMC to looped peptides of the protein M of SARS-CoV Urbani / Binding of Control Serum Blood-Bank to Looped peptides of the protein M of SARS-CoV Urbani: unit not given here

Row | Sequence | Binding of antibody 03-018 to linear peptides of the N protein of SARS-CoV Urbani [1] | Binding of antibody 03-018 to looped/cyclic peptides of the N protein of SARS-CoV Urbani [1] | Binding of serum 1a to linear peptides of protein N of SARS-CoV Urbani [2] | Binding of serum 1b to linear peptides of protein N of SARS-CoV Urbani [2] | Binding of serum 2 to linear peptides of protein N of SARS-CoV Urbani [2] | Binding of serum 6 to linear peptides of protein N of SARS-CoV Urbani [2] | Binding of serum 37 to linear peptides of protein N of SARS-CoV Urbani [2] | Binding of serum 62 to linear peptides of protein N of SARS-CoV Urbani [2] | Binding of serum London to linear peptides of protein N of SARS-CoV Urbani [2] | Binding of serum SARS-green to linear peptides of protein N of SARS-CoV Urbani [2] | Binding of serum SARS-yellow to linear peptides of protein N of SARS-CoV Urbani [2] | Binding of a rabbit serum to linear peptides of protein N of SARS-CoV Urbani (Rabbit serum linear peptides) [3] | Binding of a rabbit serum to looped/cyclic peptides of protein N of SARS-CoV Urbani (Rabbit serum looped peptides) [3] | Binding of serum 1a to looped/cyclic peptides of protein N of SARS-CoV Urbani [2] | Binding of serum 1b to looped/cyclic peptides of protein N of SARS-CoV Urbani [2] | Binding of serum 2 to looped/cyclic peptides of protein N of SARS-CoV Urbani [2] | Binding of serum 6 to looped/cyclic peptides of protein N of SARS-CoV Urbani [2] | Binding of serum 37 to looped/cyclic peptides of protein N of SARS-CoV Urbani [2] | Binding of serum 62 to looped/cyclic peptides of protein N of SARS-CoV Urbani [2] | Binding of serum London to looped/cyclic peptides of protein N of SARS-CoV Urbani [2] | further results
1 | LPQRQKKQPTVTLLP | 0.1 | 0.3 | 0.2 | 0.2 | 0.3 | 0.1 | 0.7 | 0.7 | 0.5 | 0.4 | 0.7 | 0.2 | 0.7 | – | – | – | – | – | – | – | Recognition of the peptide by sera of SARS-CoV infected individuals, and form (linear, looped/cyclic) in which it is recognized [2]: recognized in looped/cyclic form; Control Serum Blood-Bank Looped peptides [4]: 0.8; Control serum Blood-bank linear peptides [4]: 0.8; Control serum LUMC linear peptides [4]: 0.7; Control serum LUMC looped peptides [4]: 0.7
2 | PRWYFYYLGTGPEAS | 0.1 | 0.2 | 0.3 | 0.2 | 0.2 | 0.2 | 0.9 | 0.7 | 0.5 | 0.5 | 0.6 | 0.2 | 0.6 | 0.4 | 0.3 | 0.5 | 0.3 | 1.0 | 0.8 | 0.5 | Binding of serum SARS-green to looped/cyclic peptides of protein N of SARS-CoV Urbani [2]: 0.9; Binding of serum SARS-yellow to looped/cyclic peptides of protein N of SARS-CoV Urbani [2]: 0.8; Binding of Control Serum Blood-Bank to Looped peptides [4]: 0.7; Binding of Control serum Blood-bank to linear peptides [4]: 0.7; Binding of Control serum LUMC to linear peptides [4]: 0.6; Binding of Control serum LUMC to looped peptides [4]: 0.7
3 | HGKEELRFPRGQGVP | 0.1 | 0.2 | 0.2 | 0.2 | 0.3 | 0.1 | 0.7 | 0.7 | 0.5 | 0.5 | 0.7 | 0.1 | 0.3 | 0.3 | 0.2 | 0.4 | 0.2 | 0.5 | 0.3 | 0.4 | Binding of serum SARS-green to looped/cyclic peptides of protein N of SARS-CoV Urbani [2]: 0.2; Binding of serum SARS-yellow to looped/cyclic peptides of protein N of SARS-CoV Urbani [2]: 0.5; Binding of Control Serum Blood-Bank to Looped peptides [4]: 0.5; Binding of Control serum Blood-bank to linear peptides [4]: 0.8; Binding of Control serum LUMC to linear peptides [4]: 0.6; Binding of Control serum LUMC to looped peptides [4]: 0.5
4 | ALTQHGKEELRFPRG | 0.2 | 0.2 | 0.3 | 0.2 | 0.3 | 0.2 | 0.9 | 0.8 | 0.5 | 0.6 | 0.6 | 0.2 | 0.3 | 0.2 | 0.1 | 0.2 | 0.1 | 0.5 | 0.2 | 0.3 | Binding of serum SARS-green to looped/cyclic peptides of protein N of SARS-CoV Urbani [2]: 0.1; Binding of serum SARS-yellow to looped/cyclic peptides of protein N of SARS-CoV Urbani [2]: 0.3; Binding of Control Serum Blood-Bank to Looped peptides [4]: 0.4; Binding of Control serum Blood-bank to linear peptides [4]: 0.9; Binding of Control serum LUMC to linear peptides [4]: 0.7; Binding of Control serum LUMC to looped peptides [4]: 0.4
5 | GRNGARPKQRRPQGL | 0.1 | 0.2 | 0.2 | 0.1 | 0.2 | 0.2 | 0.7 | 0.6 | 0.4 | 0.4 | 0.4 | 0.2 | 0.7 | 0.2 | 0.1 | 0.2 | 0.2 | 0.4 | 0.3 | 0.3 | Binding of serum SARS-green to looped/cyclic peptides of protein N of SARS-CoV Urbani [2]: 0.2; Binding of serum SARS-yellow to looped/cyclic peptides of protein N of SARS-CoV Urbani [2]: 0.3; Binding of Control Serum Blood-Bank to Looped peptides [4]: 0.5; Binding of Control serum Blood-bank to linear peptides [4]: 0.7; Binding of Control serum LUMC to linear peptides [4]: 0.6; Binding of Control serum LUMC to looped peptides [4]: 0.5
